Laboratory results: the NIST ThermoML archive (doi:10.1021/acs.jced.8b00692)

Assay: xn = mol fraction of the nth substance listed
Details: 102 kPa, Liquid; for viscosity: Concentric cylinders viscometry; for speed of sound: Frequency=3 MHz, Single path-length method; for mass density: Vibrating tube method

CCCCCCCCCC1CCCCC1 [nonylcyclohexane] + CCCCCCCCCCCCCCCC
Details | mass density [kg/m3] | speed of sound [m/s] | viscosity [mPa·s]
293.15 K, x1 = 0.2005 | 781.15 | 1363.9 | 3.58
293.15 K, x1 = 0.4001 | 789.28 | 1371.3 | 3.72
293.15 K, x1 = 0.5002 | 793.52 | 1375.2 | 3.79
293.15 K, x1 = 0.5998 | 797.86 | 1379.1 | 3.89
293.15 K, x1 = 0.8002 | 806.91 | 1387.3 | 4.07
293.15 K, x1 = 1 | 816.41 | 1397.2 | 4.34
303.15 K, x1 = 0.2005 | 774.24 | 1326.7 | 2.84
303.15 K, x1 = 0.4001 | 782.39 | 1334.2 | 2.95
303.15 K, x1 = 0.5002 | 786.64 | 1338.1 | 3
303.15 K, x1 = 0.5998 | 790.99 | 1342 | 3.06
303.15 K, x1 = 0.8002 | 800.06 | 1350.2 | 3.2
303.15 K, x1 = 1 | 809.57 | 1359.6 | 3.39
313.15 K, x1 = 0.2005 | 767.33 | 1290.2 | 2.3
313.15 K, x1 = 0.4001 | 775.51 | 1297.7 | 2.38
313.15 K, x1 = 0.5002 | 779.77 | 1301.6 | 2.43
313.15 K, x1 = 0.5998 | 784.12 | 1305.6 | 2.47
313.15 K, x1 = 0.8002 | 793.21 | 1313.8 | 2.58
313.15 K, x1 = 1 | 802.74 | 1322.9 | 2.72
323.15 K, x1 = 0.2005 | 760.43 | 1254.4 | 1.9
323.15 K, x1 = 0.4001 | 768.63 | 1261.9 | 1.96
323.15 K, x1 = 0.5002 | 772.9 | 1265.8 | 2
323.15 K, x1 = 0.5998 | 777.25 | 1269.8 | 2.03
323.15 K, x1 = 0.8002 | 786.35 | 1278.1 | 2.12
323.15 K, x1 = 1 | 795.8 | 1287.1 | 2.22
333.15 K, x1 = 0.2005 | 753.54 | 1219.5 | 1.6
333.15 K, x1 = 0.4001 | 761.74 | 1226.9 | 1.65
333.15 K, x1 = 0.5002 | 766.02 | 1230.9 | 1.68
333.15 K, x1 = 0.5998 | 770.38 | 1234.9 | 1.7
333.15 K, x1 = 0.8002 | 779.49 | 1243.4 | 1.77
333.15 K, x1 = 1 | 789.05 | 1252.2 | 1.85
343.15 K, x1 = 0.2005 | 746.6 | – | 1.38
343.15 K, x1 = 0.4001 | 754.9 | – | 1.4
343.15 K, x1 = 0.5002 | 759.2 | – | 1.44
343.15 K, x1 = 0.5998 | 763.6 | – | 1.45
343.15 K, x1 = 0.8002 | 772.7 | – | 1.5
343.15 K, x1 = 1 | 782.2 | – | 1.57
353.15 K, x1 = 0.2005 | 739.7 | – | 1.18
353.15 K, x1 = 0.4001 | 748 | – | 1.21
353.15 K, x1 = 0.5002 | 752.3 | – | 1.23
353.15 K, x1 = 0.5998 | 756.8 | – | 1.25
353.15 K, x1 = 0.8002 | 765.8 | – | 1.3
353.15 K, x1 = 1 | 775.4 | – | 1.35
363.15 K, x1 = 0.2005 | 732.7 | – | 1.05
363.15 K, x1 = 0.4001 | 741.1 | – | 1.06
363.15 K, x1 = 0.5002 | 745.4 | – | 1.09
363.15 K, x1 = 0.5998 | 749.8 | – | 1.09
363.15 K, x1 = 0.8002 | 758.9 | – | 1.13
363.15 K, x1 = 1 | 768.5 | – | 1.2
373.15 K, x1 = 0.2005 | 725.7 | – | 0.908
373.15 K, x1 = 0.4001 | 734.2 | – | 0.931
373.15 K, x1 = 0.5002 | 738.5 | – | 0.944
373.15 K, x1 = 0.5998 | 742.9 | – | 0.96
373.15 K, x1 = 0.8002 | 752 | – | 1
373.15 K, x1 = 1 | 761.6 | – | 1.03

CCCCCCCCC1CCCCC1 [octylcyclohexane] + CCCCCCCCCCCCCCCC
Details | mass density [kg/m3] | speed of sound [m/s] | viscosity [mPa·s]
293.15 K, x1 = 0.2001 | 780.29 | 1361.6 | 3.46
293.15 K, x1 = 0.3999 | 787.74 | 1366.8 | 3.46
293.15 K, x1 = 0.5002 | 791.67 | 1369.7 | 3.46
293.15 K, x1 = 0.6009 | 795.83 | 1372.6 | 3.44
293.15 K, x1 = 0.8006 | 804.62 | 1378.6 | 3.46
293.15 K, x1 = 1 | 814.14 | 1387 | 3.52
303.15 K, x1 = 0.2001 | 773.36 | 1324.4 | 2.75
303.15 K, x1 = 0.3999 | 780.82 | 1329.6 | 2.74
303.15 K, x1 = 0.5002 | 784.77 | 1332.1 | 2.75
303.15 K, x1 = 0.6009 | 788.93 | 1335 | 2.74
303.15 K, x1 = 0.8006 | 797.71 | 1341.3 | 2.76
303.15 K, x1 = 1 | 807.22 | 1349.1 | 2.79
313.15 K, x1 = 0.2001 | 766.44 | 1287.9 | 2.24
313.15 K, x1 = 0.3999 | 773.91 | 1293 | 2.23
313.15 K, x1 = 0.5002 | 777.87 | 1295.4 | 2.24
313.15 K, x1 = 0.6009 | 782.03 | 1298.3 | 2.23
313.15 K, x1 = 0.8006 | 790.79 | 1304.6 | 2.24
313.15 K, x1 = 1 | 800.29 | 1312.1 | 2.27
323.15 K, x1 = 0.2001 | 759.53 | 1252 | 1.85
323.15 K, x1 = 0.3999 | 767 | 1257.2 | 1.84
323.15 K, x1 = 0.5002 | 770.97 | 1259.5 | 1.85
323.15 K, x1 = 0.6009 | 775.12 | 1262.4 | 1.85
323.15 K, x1 = 0.8006 | 783.86 | 1268.6 | 1.85
323.15 K, x1 = 1 | 793.36 | 1275.9 | 1.88
333.15 K, x1 = 0.2001 | 752.62 | 1217.1 | 1.56
333.15 K, x1 = 0.3999 | 760.08 | 1222.1 | 1.55
333.15 K, x1 = 0.5002 | 764.05 | 1224.6 | 1.56
333.15 K, x1 = 0.6009 | 768.2 | 1227.3 | 1.56
333.15 K, x1 = 0.8006 | 776.93 | 1233.7 | 1.56
333.15 K, x1 = 1 | 786.42 | 1240.5 | 1.58
343.15 K, x1 = 0.2001 | 745.7 | – | 1.34
343.15 K, x1 = 0.3999 | 753.2 | – | 1.33
343.15 K, x1 = 0.5002 | 757.2 | – | 1.35
343.15 K, x1 = 0.6009 | 761.3 | – | 1.33
343.15 K, x1 = 0.8006 | 770 | – | 1.34
343.15 K, x1 = 1 | 779.5 | – | 1.36
353.15 K, x1 = 0.2001 | 738.8 | – | 1.15
353.15 K, x1 = 0.3999 | 746.3 | – | 1.15
353.15 K, x1 = 0.5002 | 750.2 | – | 1.15
353.15 K, x1 = 0.6009 | 754.3 | – | 1.15
353.15 K, x1 = 0.8006 | 763.1 | – | 1.16
353.15 K, x1 = 1 | 772.5 | – | 1.16
363.15 K, x1 = 0.2001 | 731.8 | – | 1.02
363.15 K, x1 = 0.3999 | 739.3 | – | 1
363.15 K, x1 = 0.5002 | 743.3 | – | 1.03
363.15 K, x1 = 0.6009 | 747.4 | – | 1.01
363.15 K, x1 = 0.8006 | 756.1 | – | 1.01
363.15 K, x1 = 1 | 765.5 | – | 1.04
373.15 K, x1 = 0.2001 | 724.8 | – | 0.887
373.15 K, x1 = 0.3999 | 732.3 | – | 0.889
373.15 K, x1 = 0.5002 | 736.3 | – | 0.89
373.15 K, x1 = 0.6009 | 740.4 | – | 0.895
373.15 K, x1 = 0.8006 | 749.1 | – | 0.897
373.15 K, x1 = 1 | 758.5 | – | 0.899
